Among the data in PubChem BioAssay (NCI) are TGI values, retold here.

Some test systems named below: BT-549 breast; CCRF-CEM leukemia; COLO 205 colon; K-562 leukemia; KM12 colon; MALME-3M melanoma; NCI-H23 lung; OVCAR-4 ovarian; PC-3 prostate; RXF 393 renal; SF-295 CNS; SK-MEL-2 melanoma; SN12C renal; T-47D breast; U251 CNS; UACC-62 melanoma; RPMI-8226 leukemia; HOP-92 NSCLC.
What all share (test): NCI tumour cell line growth inhibition, 48 h

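Tested at 5 concentrations; 48 h exposure; 96-well plates; endpoints linearly interpolated, else capped at highest concentration. TGI: concentration producing complete growth inhibition.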

For `CC(=O)N1N(c2ccc([N+](=O)[O-])cc2)C(=O)C1(C)C`, the TGI amounted to 24.2 µM with BT-549 breast; 33.3 µM with CCRF-CEM leukemia; 30.5 µM in the experiment on COLO 205 colon; 60.5 µM in the experiment with K-562 leukemia; 35.4 µM in the experiment with KM12 colon; 56 µM in the experiment on MALME-3M melanoma. Further, the TGI in the experiment on NCI-H23 lung is 37.8 µM; in the experiment on OVCAR-4 ovarian it was 35 µM; in the experiment on PC-3 prostate it was 32 µM; in the experiment on RXF 393 renal it was 32.3 µM; with SF-295 CNS, greater than 100 µM; in the experiment with SK-MEL-2 melanoma, 37.4 µM. The TGI with SN12C renal is 32.5 µM; in the experiment with T-47D breast, greater than 100 µM; in the experiment on U251 CNS, 52.8 µM; in the experiment on UACC-62 melanoma it was 42.3 µM.

Turning to `N#Cc1[nH]c(=O)n(-c2cccc3ccccc23)c1N`, the TGI in the experiment on BT-549 breast, in the experiment with CCRF-CEM leukemia, in the experiment with COLO 205 colon, with K-562 leukemia, in the experiment with KM12 colon and with MALME-3M melanoma was greater than 10 µM each time. The TGI in the experiment with NCI-H23 lung, with OVCAR-4 ovarian, with PC-3 prostate, with RPMI-8226 leukemia, in the experiment on RXF 393 renal and with SF-295 CNS was greater than 10 µM each time. Besides, the TGI in the experiment on SK-MEL-2 melanoma, in the experiment with SN12C renal, in the experiment on T-47D breast, in the experiment on U251 CNS and with UACC-62 melanoma was greater than 10 µM each time.

Regarding `CN(C)CCn1c(=O)c2ccc3c4c(nn3CCN(C)C)c3cc(O)ccc3n(c1=O)c24`, the TGI was 3.66 µM in the experiment with BT-549 breast; 0.656 µM with CCRF-CEM leukemia; 0.609 µM with COLO 205 colon; 1.56 µM in the experiment with K-562 leukemia; 3.5 µM in the experiment on KM12 colon; 0.982 µM in the experiment on MALME-3M melanoma. Moreover, the TGI with NCI-H23 lung turned out to be 0.701 µM; in the experiment with OVCAR-4 ovarian, 0.392 µM; in the experiment on PC-3 prostate, 2.98 µM; with RPMI-8226 leukemia it was 0.406 µM; with RXF 393 renal, 0.977 µM; with SF-295 CNS, 0.271 µM. Besides, the TGI with SK-MEL-2 melanoma is 0.576 µM; in the experiment on SN12C renal, 0.842 µM; with T-47D breast, greater than 39.2 µM; in the experiment with UACC-62 melanoma, 0.585 µM.

Take `CC(C)CC(NC(=O)C(CCI)Cc1ccccc1)C(=O)Nc1ccccc1` (configuration not stated): the TGI was 66.5 µM with BT-549 breast; greater than 100 µM with CCRF-CEM leukemia; greater than 100 µM in the experiment with COLO 205 colon; greater than 100 µM in the experiment on HOP-92 NSCLC; greater than 100 µM in the experiment on K-562 leukemia; greater than 100 µM in the experiment on KM12 colon. The TGI in the experiment with MALME-3M melanoma, in the experiment with NCI-H23 lung, with OVCAR-4 ovarian, in the experiment with PC-3 prostate, in the experiment with RPMI-8226 leukemia and in the experiment with RXF 393 renal was greater than 100 µM each time. For the same compound, the TGI in the experiment on SF-295 CNS, in the experiment with SK-MEL-2 melanoma, in the experiment with SN12C renal, with U251 CNS and in the experiment with UACC-62 melanoma was greater than 100 µM in each case.

Take `C/C(=N\NC(=S)NC(C)(C)C)c1ccccn1`: the TGI with BT-549 breast was greater than 100 µM; in the experiment with COLO 205 colon it was greater than 100 µM; with HOP-92 NSCLC, 9.47 µM; in the experiment on KM12 colon, greater than 100 µM; with MALME-3M melanoma it was greater than 79.5 µM; in the experiment on NCI-H23 lung it was greater than 100 µM. Besides, the TGI was greater than 100 µM with OVCAR-4 ovarian; 3.72 µM in the experiment on RPMI-8226 leukemia; 23.2 µM with RXF 393 renal; greater than 100 µM in the experiment on SF-295 CNS; greater than 100 µM in the experiment with SK-MEL-2 melanoma; greater than 88.5 µM in the experiment with SN12C renal. In addition, the TGI in the experiment with T-47D breast is 34.9 µM; in the experiment with U251 CNS it was greater than 85.9 µM; in the experiment with UACC-62 melanoma it was 25.7 µM.

Consider `CC(C)(C)[Si](C)(C)OCCOCn1cc(F)c(=O)[nH]c1=O`, for which the TGI with BT-549 breast, in the experiment on CCRF-CEM leukemia, in the experiment with COLO 205 colon, with K-562 leukemia, in the experiment on KM12 colon and in the experiment on MALME-3M melanoma was greater than 100 µM each time. Also, the TGI in the experiment on NCI-H23 lung, in the experiment with OVCAR-4 ovarian, in the experiment with PC-3 prostate, in the experiment with RPMI-8226 leukemia, with RXF 393 renal and in the experiment with SF-295 CNS was greater than 100 µM in each case. For the same compound, the TGI in the experiment with SK-MEL-2 melanoma, with SN12C renal, with T-47D breast, in the experiment with U251 CNS and with UACC-62 melanoma was greater than 100 µM each time.

Turning to `O=C(CNC(=O)OCc1ccccc1)NCCCCC(NC(=O)OCc1ccccc1)C(=O)NC(CCCCNC(=O)CNC(=O)OCc1ccccc1)C(=O)OCc1ccccc1` (configuration not stated), the TGI in the experiment with BT-549 breast, in the experiment on CCRF-CEM leukemia, in the experiment on K-562 leukemia, in the experiment on MALME-3M melanoma, in the experiment on NCI-H23 lung and with OVCAR-4 ovarian was greater than 62.5 µM throughout. For the same compound, the TGI in the experiment with PC-3 prostate, with RPMI-8226 leukemia, with SK-MEL-2 melanoma, with SN12C renal, in the experiment on T-47D breast and in the experiment with U251 CNS was greater than 62.5 µM throughout. The TGI in the experiment on UACC-62 melanoma is greater than 62.5 µM.

For `CC(=O)O[C@H]1CCn2c3c(c(C)c21)C(=O)C(N1CC1)=C(C)C3=O`, the TGI in the experiment with BT-549 breast, in the experiment with CCRF-CEM leukemia, in the experiment on COLO 205 colon, in the experiment on K-562 leukemia, with KM12 colon and in the experiment with MALME-3M melanoma was greater than 10 µM throughout. For the same compound, the TGI in the experiment on NCI-H23 lung, with OVCAR-4 ovarian, in the experiment on PC-3 prostate, with RPMI-8226 leukemia, in the experiment on SF-295 CNS and in the experiment on SK-MEL-2 melanoma was greater than 10 µM in each case. Also, the TGI in the experiment on SN12C renal, with T-47D breast, in the experiment on U251 CNS and with UACC-62 melanoma was greater than 10 µM in each case.
